Source: patent US20240116985A1, “STAPLED PEPTIDES AND METHODS THEREOF” (priority 2020, published 2024)

Target: T1, full-length beta-Catenin (Uniprot ID P35222) (Homo sapiens, UniProt P35222)
T1 construct: 10 nM full-length beta-Catenin (Uniprot ID P35222)
T1 sequence (P35222 1-781): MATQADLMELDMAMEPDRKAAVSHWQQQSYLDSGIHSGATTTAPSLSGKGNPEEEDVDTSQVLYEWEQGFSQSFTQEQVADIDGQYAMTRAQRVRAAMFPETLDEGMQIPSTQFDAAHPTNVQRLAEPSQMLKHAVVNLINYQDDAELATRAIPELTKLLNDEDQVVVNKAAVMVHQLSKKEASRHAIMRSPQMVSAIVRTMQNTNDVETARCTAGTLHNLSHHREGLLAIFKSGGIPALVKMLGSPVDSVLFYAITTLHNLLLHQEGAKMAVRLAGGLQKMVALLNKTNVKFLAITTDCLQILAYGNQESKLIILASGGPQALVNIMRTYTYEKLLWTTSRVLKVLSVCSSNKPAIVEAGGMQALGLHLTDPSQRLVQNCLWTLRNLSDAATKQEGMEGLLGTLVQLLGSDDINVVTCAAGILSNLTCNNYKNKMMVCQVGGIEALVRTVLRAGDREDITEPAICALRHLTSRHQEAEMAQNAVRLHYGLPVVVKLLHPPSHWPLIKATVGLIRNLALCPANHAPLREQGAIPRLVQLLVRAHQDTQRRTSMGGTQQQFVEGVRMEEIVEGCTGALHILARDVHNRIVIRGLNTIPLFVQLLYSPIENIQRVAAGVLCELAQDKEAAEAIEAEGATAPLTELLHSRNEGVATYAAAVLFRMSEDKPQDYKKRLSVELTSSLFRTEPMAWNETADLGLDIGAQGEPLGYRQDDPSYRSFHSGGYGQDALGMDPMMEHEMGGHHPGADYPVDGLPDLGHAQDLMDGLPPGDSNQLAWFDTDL
Experiment: Fluorescence polarization IC50 (beta-catenin / 5FAM-TCF4 10-53 competition)
Format: binding
Conditions: fluorescence polarization; read-out: beta-Catenin FP IC50

IC50 | Structure (SMILES)
121 nM | CCCc1cn(CCCC[C@@H](NC(=O)[C@H](CO)NC(=O)[C@H](Cc2csc3ccccc23)NC(=O)[C@H](Cc2ccccc2C(F)(F)F)NC(=O)[C@]23CCN(C2)C(=O)OCCCC=CCCCC2(CCCC=CC[C@]4(CCCN4C(C)=O)C(=O)N[C@@H](CC(=O)O)C(=O)N[C@@H](CC(C)(C)C)C(=O)N2)C(=O)N[C@@H](CC(=O)O)C(=O)N[C@@H](Cc2cccc(C(=O)O)c2)C(=O)N[C@@H](C)C(=O)N[C@@H](C)C(=O)N[C@@H](Cc2ccccc2)C(=O)N[C@@H](CC(C)C)C(=O)N3)C(N)=O)nn1 (stereo partly drawn) [I-2444, Ac-PL3-Asp-Npg-B5-Asp-3COOHF-Ala-Ala-Phe-Leu-PyrS2-2F3MeF-BztA-Ser-[3C]TriAzdLys-NH2]
60 nM | CC(=O)N1CCC[C@]12CC=CCCCC1(CCCC=CCCCOC(=O)N3CC[C@@](C(=O)N[C@@H](Cc4ccsc4)C(=O)N[C@@H](Cc4csc5ccccc45)C(=O)N[C@@H](C)C(N)=O)(C3)NC(=O)[C@H](CC(C)C)NC(=O)[C@H](Cc3ccccc3)NC(=O)[C@H](C)NC(=O)C(C)(C)NC(=O)[C@H](Cc3cc(C(=O)O)cc(C(F)(F)F)c3)NC(=O)[C@H](CC(=O)O)NC1=O)NC(=O)[C@H](CC(C)(C)C)NC(=O)[C@H](CC(=O)O)NC2=O (stereo partly drawn) [I-2212, Ac-PL3-Asp-Npg-B5-Asp-5F3Me3COOHF-Aib-Ala-Phe-Leu-PyrS2-3Thi-BztA-Ala-NH2]
181 nM | CC(=O)N1CCC[C@H]1C(=O)N[C@]1(C)CC=CCCCC2(CCCC=CCCCOC(=O)N3CC[C@@](C(=O)N[C@@H](Cc4ccccc4C(F)(F)F)C(=O)N[C@@H](Cc4csc5ccccc45)C(=O)N[C@@H](CCC(N)=O)C(N)=O)(C3)NC(=O)[C@H](CC(C)C)NC(=O)[C@H](Cc3ccccc3)NC(=O)[C@H](C)NC(=O)[C@H](C)NC(=O)[C@H](Cc3cccc(C(=O)O)c3)NC(=O)[C@H](CC(=O)O)NC2=O)NC(=O)[C@H](CC(C)(C)C)NC(=O)[C@H](CC(=O)O)NC1=O (stereo partly drawn) [I-2566, Ac-Pro-R3-Asp-Npg-B5-Asp-3COOHF-Ala-Ala-Phe-Leu-PyrS2-2F3MeF-BztA-Gln-NH2]
449 nM | CC(=O)N1CCC[C@]12CC=CCCCC1(CCCC=CCCCOC(=O)N3CC[C@@](C(=O)N[C@@H](Cc4ccccc4)C(=O)N[C@@H](Cc4csc5ccccc45)C(=O)N[C@@H](CC(=O)N4CCOCC4)C(N)=O)(C3)NC(=O)[C@H](CC(C)C)NC(=O)[C@H](Cc3ccccc3)NC(=O)[C@H](C)NC(=O)[C@H](CCO)NC(=O)[C@H](CCC(N)=O)NC(=O)[C@H](CC(=O)O)NC1=O)NC(=O)[C@H](CC1CCCCC1)NC(=O)[C@H](CC(N)=O)NC2=O (stereo partly drawn) [I-2498, Ac-PL3-Asn-Cha-B5-Asp-Gln-Hse-Ala-Phe-Leu-PyrS2-Phe-BztA-MorphAsn-NH2]
45 nM | CC(=O)N1CC2CC1C(=O)N[C@@H](CC(=O)O)C(=O)N[C@@H](CC(C)(C)C)C(=O)NC1(CCCC=CCCCOC(=O)N3CC[C@@](C(=O)N[C@@H](Cc4ccsc4)C(=O)N[C@@H](Cc4csc5ccccc45)C(=O)N[C@@H](CCC(N)=O)C(N)=O)(C3)NC(=O)[C@H](CC(C)C)NC(=O)[C@H](Cc3ccccc3)NC(=O)[C@H](C)NC(=O)[C@H](C)NC(=O)[C@H](CN(CC(=O)O)CC(F)(F)F)NC(=O)[C@H](CC(=O)O)NC1=O)CCCC=CCCC(=O)O2 (stereo partly drawn) [I-2264, Ac-HypEs5-Asp-Npg-B5-Asp-TfeGA-Ala-Ala-Phe-Leu-PyrS2-3Thi-BztA-Gln-NH2]

The remaining lines, values behind:

Structure (SMILES) | IC50
CC(=O)N1CCC[C@]12CC=CCCCC1(CCCC=CCCCOC(=O)N3CC[C@@](C(=O)N[C@@H](Cc4ccsc4)C(=O)N[C@@H](Cc4csc5ccccc45)C(=O)N[C@H](C(N)=O)C(C)C)(C3)NC(=O)[C@H](CC(N)=O)NC(=O)[C@H](Cc3ccccc3)NC(=O)[C@H](C)NC(=O)[C@H](C)NC(=O)[C@H]([C@@H](C)O)NC(=O)[C@H](CC(N)=O)NC1=O)NC(=O)[C@H](CC(C)(C)C)NC(=O)[C@H](CC(=O)O)NC2=O (stereo partly drawn) [I-1878, Ac-PL3-Asp-Npg-B5-Asn-Thr-Ala-Ala-Phe-Asn-PyrS2-3Thi-BztA-Val-NH2] | 458 nM
CC(=O)N1CCC[C@]12CC=CCCCC1(CCCC=CCCCOC(=O)N3CC[C@@](C(=O)N[C@@H](Cc4ccsc4)C(=O)N[C@@H](Cc4csc5ccccc45)C(=O)N[C@@H](CCC(N)=O)C(=O)NCc4ccccc4)(C3)NC(=O)[C@H](CC(N)=O)NC(=O)[C@H](Cc3ccccc3)NC(=O)[C@H](C)NC(=O)[C@H](C)NC(=O)[C@H](CC(=O)O)NC(=O)[C@H](CC(=O)O)NC1=O)NC(=O)[C@H](CC(C)(C)C)NC(=O)[C@H](CC(=O)O)NC2=O (stereo partly drawn) [I-1257, Ac-PL3-Asp-Npg-B5-Asp-Asp-Ala-Ala-Phe-Asn-PyrS2-3Thi-BztA-Gln-NHBn] | 11 nM
CC(=O)N1CCC[C@]12CC=CCCCC1(CCCC=CCCCOC(=O)N3CC[C@@](C(=O)N[C@@H](Cc4ccsc4)C(=O)N[C@@H](Cc4csc5ccccc45)C(=O)N[C@@H](CCC(N)=O)C(N)=O)(C3)NC(=O)[C@H](CC(C)C)NC(=O)[C@H](Cc3ccccc3)NC(=O)[C@H](C)NC(=O)[C@H](C)NC(=O)[C@H](CC(=O)O)NC(=O)[C@H](CC(=O)O)NC1=O)NC(=O)[C@H](CC(C)(C)C)NC(=O)[C@H](CCO)NC2=O (stereo partly drawn) [I-1229, Ac-PL3-Hse-Npg-B5-Asp-Asp-Ala-Ala-Phe-Leu-PyrS2-3Thi-BztA-Gln-NH2] | 134 nM
CC(=O)N1CCC[C@]12CC=CCCCC1(CCCC=CCCCOC(=O)N3CC[C@@](C(=O)N[C@@H](Cc4ccccc4)C(=O)N[C@@H](Cc4csc5ccccc45)C(=O)N[C@@H](CCC(N)=O)C(N)=O)(C3)NC(=O)[C@H](CC(C)C)NC(=O)[C@H](Cc3ccccc3)NC(=O)[C@H](C)NC(=O)[C@H](CCCCNC(C)C)NC(=O)[C@H](Cc3cccc(C(N)=O)c3)NC(=O)[C@H](CC(=O)O)NC1=O)NC(=O)[C@H](CC(C)(C)C)NC(=O)[C@H](CC(N)=O)NC2=O (stereo partly drawn) [I-1592, Ac-PL3-Asn-Npg-B5-Asp-3cbmf-iPrLys-Ala-Phe-Leu-PyrS2-Phe-BztA-Gln-NH2] | 2850 nM
CC(=O)N1CCC[C@]12CC=CCCCC1(CCCC=CCCCOC(=O)N3CC[C@@](C(=O)N[C@@H](Cc4ccccc4Cl)C(=O)N[C@@H](Cc4csc5ccccc45)C(=O)N[C@@H](CCC(N)=O)C(=O)N[C@H](CO)CC(C)C)(C3)NC(=O)[C@H](CC(C)C)NC(=O)[C@H](Cc3ccccc3)NC(=O)[C@H](C)NC(=O)[C@H](C)NC(=O)[C@H](Cc3cccc(C(=O)O)c3)NC(=O)[C@H](CC(=O)O)NC1=O)NC(=O)[C@H](CC(C)(C)C)NC(=O)[C@H](CC(=O)O)NC2=O (stereo partly drawn) [I-1676, Ac-PL3-Asp-Npg-B5-Asp-3COOHF-Ala-Ala-Phe-Leu-PyrS2-2C1F-BztA-Gln-Leuo1] | 91 nM
CC(=O)N1CCC[C@]12CC=CCCCC1(CCCC=CCCCOC(=O)N3CC[C@@](C(=O)N[C@@H](Cc4ccsc4)C(=O)N[C@@H](Cc4cccc(F)c4F)C(=O)N[C@@H](CO)C(N)=O)(C3)NC(=O)[C@H](CC(C)C)NC(=O)[C@H](Cc3ccccc3)NC(=O)[C@H](C)NC(=O)[C@H](C)NC(=O)[C@H](CC(=O)O)NC(=O)[C@H](CC(=O)O)NC1=O)NC(=O)[C@H](CC(C)(C)C)NC(=O)[C@H](CC(=O)O)NC2=O (stereo partly drawn) [I-1426, Ac-PL3-Asp-Npg-B5-Asp-Asp-Ala-Ala-Phe-Leu-PyrS2-3Thi-23FF-Ser-NH2] | 203 nM
CC(=O)N1CCC[C@]12CC=CCCCC1(CCCC=CCCCOC(=O)N3CC[C@@](C(=O)N[C@@H](Cc4ccsc4)C(=O)N[C@@H](Cc4csc5ccccc45)C(=O)N[C@@H](CCC(N)=O)C(N)=O)(C3)NC(=O)[C@H](CC(N)=O)NC(=O)[C@H](Cc3ccccc3)NC(=O)[C@H](C)NC(=O)[C@H](C)NC(=O)[C@H]([C@@H](C)O)NC(=O)[C@H](CC(N)=O)NC1=O)NC(=O)[C@H](C)NC(=O)[C@H](CC(=O)O)NC2=O (stereo partly drawn) [I-2002, Ac-PL3-Asp-Ala-B5-Asn-Thr-Ala-Ala-Phe-Asn-PyrS2-3Thi-BztA-Gln-NH2] | 612 nM
CC(=O)N1CCC[C@]12CC=CCCCC1(CCCC=CCCCOC(=O)N3CC[C@@](C(=O)N[C@@H](Cc4ccccc4C(F)(F)F)C(=O)N[C@@H](Cc4csc5ccccc45)C(=O)N[C@H](C)C(N)=O)(C3)NC(=O)[C@H](CC(C)C)NC(=O)[C@H](Cc3ccccc3)NC(=O)[C@@H](C)NC(=O)[C@H](C)NC(=O)[C@H](Cc3cccc(C(=O)O)c3)NC(=O)[C@H](CC(=O)O)NC1=O)NC(=O)[C@H](CC(C)(C)C)NC(=O)[C@H](CC(=O)O)NC2=O (stereo partly drawn) [I-2101, Ac-PL3-Asp-Npg-B5-Asp-3COOHF-Ala-dAla-Phe-Leu-PyrS2-2F3MeF-BztA-dAla-NH2] | 424 nM
CC(=O)N1CCC[C@]12CCCCCC1(CCCCCCCOC(=O)N3CC[C@@](C(=O)N[C@@H](Cc4ccsc4)C(=O)N[C@@H](Cc4csc5ccccc45)C(=O)N[C@@H](CCC(N)=O)C(N)=O)(C3)NC(=O)[C@H](CC(C)C)NC(=O)[C@H](Cc3ccccc3)NC(=O)[C@H](C)NC(=O)[C@H](C)NC(=O)[C@H](CC(=O)O)NC(=O)[C@H](CC(=O)O)NC1=O)NC(=O)[C@H](CC(C)(C)C)NC(=O)[C@H](CC(=O)O)NC2=O (stereo partly drawn) [I-1975, Ac-PL3-Asp-Npg-B4-Asp-Asp-Ala-Ala-Phe-Leu-PyrS2-3Thi-BztA-Gln-NH2] | 745 nM
